Test results from ChEMBL document CHEMBL1201862, “PubChem BioAssay data set” (2004).
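Compound exposure: 48 hours, 5 concentrations, 96-well plates. GI50 is the concentration that inhibits growth by half.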 Active and inactive are the calls of the source. Rule as the data show it: active = GI50 up to about 1.1 µM and inactive = higher.

Columns and labels:
Experiment in all cases: NCI tumour cell line growth inhibition, 48 h
[1] = tested on: UACC-62
[2] = tested on: 786-0
[3] = tested on: KM-20L2
[4] = tested on: SNB-78
[5] = tested on: NCI-H23
[6] = tested on: U-251
[7] = tested on: XF498
[8] = tested on: M19-MEL
[9] = tested on: MDA-N
[10] = tested on: DU-145
[11] = tested on: MCF7
[12] = tested on: SK-MEL-5
[13] = tested on: HOP-62
[14] = tested on: Hs-578T
[15] = tested on: A498
[16] = tested on: NCI/ADR-RES
[17] = tested on: RXF 393
[18] = tested on: BT-549
[19] = tested on: MDA-MB-231
[20] = tested on: HOP-18

Row | Structure (SMILES) | GI50 [1] | GI50 [2] | GI50 [3] | GI50 [4] | GI50 [5] | GI50 [6] | GI50 [7] | GI50 [8] | GI50 [9] | GI50 [10] | GI50 [11] | GI50 [12] | GI50 [13] | GI50 [14] | GI50 [15] | GI50 [16] | GI50 [17] | GI50 [18] | GI50 [19] | GI50 [20]
1 | Cc1ccc(NC(=O)C2C(=O)N(c3ccc(C)c(C)c3)C(=O)/C2=N\NC(N)=S)cc1C (stereo not given) | 50 µM (inactive) | > 100 µM (inactive) | > 100 µM (inactive) | > 100 µM (inactive) | > 100 µM (inactive) | 58.3 µM (inactive) | 97.1 µM (inactive) | > 100 µM (inactive) | – | – | – | – | – | – | – | – | – | – | – | –
2 | Cc1[nH]c(-c2ccccc2)c(O)c1C(=O)OC1CC(C)CCC1C(C)C (stereo not given) | 16.5 µM (inactive) | 15.3 µM (inactive) | – | – | 13.4 µM (inactive) | 15.5 µM (inactive) | – | – | 16.3 µM (inactive) | 15.8 µM (inactive) | 3.91 µM (inactive) | 16.6 µM (inactive) | 15.3 µM (inactive) | 18.3 µM (inactive) | 18.6 µM (inactive) | 14.7 µM (inactive) | 11.7 µM (inactive) | 18.4 µM (inactive) | 15.5 µM (inactive) | –
3 | Nc1nc(SCCc2ccccc2)nc2nc3c(c(-c4ccccc4)c12)CCCC3 | > 100 µM (inactive) | – | – | – | > 100 µM (inactive) | > 100 µM (inactive) | – | – | > 100 µM (inactive) | > 100 µM (inactive) | > 100 µM (inactive) | > 10 µM (inactive) | 66.1 µM (inactive) | 8.65 µM (inactive) | – | > 100 µM (inactive) | 24.3 µM (inactive) | 42 µM (inactive) | > 100 µM (inactive) | –
4 | O=C(NC(Cc1ccc(I)cc1)C(=O)O)c1cccc(Br)c1 (stereo not given) | 50.6 µM (inactive) | – | > 100 µM (inactive) | > 100 µM (inactive) | > 100 µM (inactive) | 78.3 µM (inactive) | – | 56.2 µM (inactive) | – | – | 38 µM (inactive) | > 100 µM (inactive) | 67.3 µM (inactive) | – | > 100 µM (inactive) | 99.5 µM (inactive) | – | – | – | > 82.4 µM (inactive)
5 | Cc1cc([N+](=O)[O-])ccc1/N=N/C(=O)NNc1ccc([N+](=O)[O-])cc1C | 13.5 µM (inactive) | 16.9 µM (inactive) | – | – | 17.3 µM (inactive) | 17.5 µM (inactive) | – | – | 15.7 µM (inactive) | 16.5 µM (inactive) | 3.18 µM (inactive) | 13.6 µM (inactive) | 13.7 µM (inactive) | – | 13.6 µM (inactive) | – | – | 11.6 µM (inactive) | > 10 µM (inactive) | –
6 | O=S(O)CCCCCSSc1ccccc1 | 28.3 µM (inactive) | – | – | 41 µM (inactive) | 52.5 µM (inactive) | 21.3 µM (inactive) | 24.2 µM (inactive) | 50 µM (inactive) | – | – | – | – | > 100 µM (inactive) | – | 48.5 µM (inactive) | – | 18.3 µM (inactive) | – | – | –
7 | C=C1C(O)C2(O)OCC34C(CC5C(C)=CC(=O)C(O)C5(C)C23)OC(=O)C(OC(=O)C/C=C/CCCCCCCC)C14 (stereo not given) | 0.0214 µM (active) | – | 0.0208 µM (active) | 0.0219 µM (active) | 0.02 µM (active) | 0.02 µM (active) | 0.0221 µM (active) | 0.02 µM (active) | – | – | – | – | 0.0233 µM (active) | – | 0.0254 µM (active) | 0.162 µM (active) | 0.0223 µM (active) | – | – | 0.0776 µM (active)
8 | CCC1NC(/N=N/c2ccc([N+](=O)[O-])cc2)(P(=O)(OC(C)C)OC(C)C)OC1=O (stereo not given) | 97.1 µM (inactive) | – | > 100 µM (inactive) | > 100 µM (inactive) | > 100 µM (inactive) | > 100 µM (inactive) | > 100 µM (inactive) | > 100 µM (inactive) | – | – | – | > 100 µM (inactive) | > 100 µM (inactive) | – | > 100 µM (inactive) | – | – | – | – | –
9 | CCOC(=O)CC1(c2cccc3ccccc23)OC(=O)c2ccccc21 (stereo not given) | 57.7 µM (inactive) | – | 45 µM (inactive) | 66.4 µM (inactive) | 20.3 µM (inactive) | 68.4 µM (inactive) | – | 48.5 µM (inactive) | – | – | – | 21.3 µM (inactive) | – | – | 23.6 µM (inactive) | – | 16.3 µM (inactive) | – | – | 40.4 µM (inactive)
10 | O=C1C[C@H](c2ccccc2)C2(C(=O)c3ccccc3C2=O)[C@H](c2ccccc2)C1 | 79.1 µM (inactive) | – | – | – | > 100 µM (inactive) | > 100 µM (inactive) | – | – | 85.7 µM (inactive) | 75 µM (inactive) | – | 63.1 µM (inactive) | 24.3 µM (inactive) | 29.8 µM (inactive) | > 100 µM (inactive) | > 100 µM (inactive) | 12.1 µM (inactive) | 86.9 µM (inactive) | 9.42 µM (inactive) | –
11 | CC(Oc1ccc(Cl)cc1Cl)C(=O)NN1C(=O)CC(=O)NC1=S (stereo not given) | 36.5 µM (inactive) | > 100 µM (inactive) | – | – | > 100 µM (inactive) | > 100 µM (inactive) | – | – | > 100 µM (inactive) | > 100 µM (inactive) | 76.7 µM (inactive) | > 100 µM (inactive) | > 100 µM (inactive) | > 100 µM (inactive) | 90.8 µM (inactive) | > 100 µM (inactive) | > 100 µM (inactive) | > 100 µM (inactive) | > 100 µM (inactive) | –
12 | CON(C)c1nc(N)c(C#N)c(C#N)c1C#N | > 10 µM (inactive) | – | – | – | > 10 µM (inactive) | > 10 µM (inactive) | – | – | > 10 µM (inactive) | > 10 µM (inactive) | > 10 µM (inactive) | > 10 µM (inactive) | > 10 µM (inactive) | > 10 µM (inactive) | > 10 µM (inactive) | > 10 µM (inactive) | > 10 µM (inactive) | – | > 10 µM (inactive) | –
13 | C/C(=C\c1ccccc1)n1c(=O)cc(C)n1C | > 100 µM (inactive) | – | – | – | > 100 µM (inactive) | > 100 µM (inactive) | – | – | > 100 µM (inactive) | > 100 µM (inactive) | > 100 µM (inactive) | > 100 µM (inactive) | > 100 µM (inactive) | > 100 µM (inactive) | – | > 100 µM (inactive) | > 100 µM (inactive) | > 100 µM (inactive) | – | –
14 | COn1oc(=O)c2ccccc21 | > 100 µM (inactive) | > 100 µM (inactive) | – | – | > 100 µM (inactive) | > 100 µM (inactive) | – | – | > 100 µM (inactive) | > 100 µM (inactive) | > 100 µM (inactive) | > 100 µM (inactive) | > 100 µM (inactive) | > 100 µM (inactive) | > 100 µM (inactive) | > 100 µM (inactive) | > 100 µM (inactive) | > 100 µM (inactive) | > 100 µM (inactive) | –
15 | CSc1nc(NC2OCC(O)C(O)C2O)c(N)c(=O)n1C (stereo not given) | > 100 µM (inactive) | – | > 100 µM (inactive) | > 100 µM (inactive) | > 100 µM (inactive) | > 100 µM (inactive) | > 100 µM (inactive) | – | – | – | > 100 µM (inactive) | > 100 µM (inactive) | > 100 µM (inactive) | – | > 100 µM (inactive) | > 100 µM (inactive) | > 100 µM (inactive) | – | – | > 100 µM (inactive)
16 | CC(C)(C)c1ccc2c(c1)OP1(Oc3cccc4cccnc34)(O2)Oc2ccc(C(C)(C)C)cc2O1 | 3.26 µM (inactive) | – | 4.05 µM (inactive) | 34.4 µM (inactive) | 3.05 µM (inactive) | 7 µM (inactive) | 2.72 µM (inactive) | 10.5 µM (inactive) | – | – | 0.655 µM (active) | 3.27 µM (inactive) | 22.8 µM (inactive) | – | 9.31 µM (inactive) | 2.96 µM (inactive) | 3.37 µM (inactive) | – | – | 20.4 µM (inactive)
17 | COC(C[C@H]1CCCC[C@]1(O)/C(=C\CO[Si](C(C)C)(C(C)C)C(C)C)Sc1ccccc1)OC | > 100 µM (inactive) | 39.4 µM (inactive) | – | – | 25.8 µM (inactive) | 22.1 µM (inactive) | – | – | 45.2 µM (inactive) | 40.1 µM (inactive) | > 100 µM (inactive) | 30.3 µM (inactive) | 50 µM (inactive) | 29.4 µM (inactive) | > 100 µM (inactive) | 87.3 µM (inactive) | 16.1 µM (inactive) | – | 18.9 µM (inactive) | –
18 | O=P(Nc1ccc(Cl)cc1)(Oc1ccccc1)N(CCCl)CCCl (stereo not given) | > 100 µM (inactive) | – | > 100 µM (inactive) | > 100 µM (inactive) | > 100 µM (inactive) | > 100 µM (inactive) | – | > 100 µM (inactive) | – | – | – | > 100 µM (inactive) | > 100 µM (inactive) | – | > 100 µM (inactive) | – | – | – | – | > 100 µM (inactive)
